Reference: patent US9050345B2, “Pyrrolotriazines as potassium ion channel inhibitors” (BRISTOL-MYERS SQUIBB COMPANY, priority 2013, dated 2015)

Each compound was assayed against T1, human KV 1.5 (IKur) (Homo sapiens, UniProt P22460) (assay: block of IKur current in patch clamped L-929 cells expressing human Kv1.5). Conditions: 0.3 μM; patch clamped mammalian L-929 cells stably expressing human Kv1.5.
T1 construct: expressed in transfected cells
Type: cell-based
Excerpt: Assays to determine the degree of activity of a compound as an IKur inhibitor are well known in the art and are described in references such as J. Gen. Physiol., 101(4):513-543 (April 1993), and Br. J. Pharmacol., 115(2):267-274 (May 1995).
Synders, D. J. et al., “A rapidly activating and slowly inactivating potassium channel cloned from human heart: functional analysis after stable mammalian cell culture expression”, J. Gen. Physiol., 101:513-543 (1993). • 2. Zhou, Z. et al., “Block of HERG potassium channels by the antihistamine astemizole and its metabolites desmethylastemizole and norastemizole”, J. Cardiovasc. Electrophysiol., 10(6):836-843 (1999).

T1 sequence (P22460 whole entry): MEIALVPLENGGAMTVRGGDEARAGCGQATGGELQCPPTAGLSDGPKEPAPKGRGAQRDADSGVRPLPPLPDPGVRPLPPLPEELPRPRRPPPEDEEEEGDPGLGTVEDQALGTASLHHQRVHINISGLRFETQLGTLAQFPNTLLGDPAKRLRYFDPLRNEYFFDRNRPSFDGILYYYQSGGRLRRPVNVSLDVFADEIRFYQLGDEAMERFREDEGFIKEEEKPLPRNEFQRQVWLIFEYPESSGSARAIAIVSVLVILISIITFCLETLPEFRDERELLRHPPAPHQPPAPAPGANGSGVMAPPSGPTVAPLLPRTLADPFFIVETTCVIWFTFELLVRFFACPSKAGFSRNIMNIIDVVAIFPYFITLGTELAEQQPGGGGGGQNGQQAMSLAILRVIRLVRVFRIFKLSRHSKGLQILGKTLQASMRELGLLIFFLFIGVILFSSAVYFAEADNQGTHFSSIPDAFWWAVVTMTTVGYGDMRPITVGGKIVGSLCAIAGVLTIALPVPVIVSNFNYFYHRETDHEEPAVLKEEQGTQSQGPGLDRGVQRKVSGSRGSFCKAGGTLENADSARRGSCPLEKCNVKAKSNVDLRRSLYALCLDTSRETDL

Row | Compound | KV1_5% Inh L929 @0.3 μM [%]
1 | 1-(1-(4- (benzylamino)-5- phenylpyrrolo [1,2-f][1,2,4] triazine-2-carbonyl) piperidin-4-yl)-1H- benzo[d]imidazol- 2(3H)-one [Example 121] | 38.74
2 | 4-(4-(benzylamino)-5- phenylpyrrolo [1,2-f][1,2,4] triazin-2-yl) picolinic acid [Example 95] | 98.08
3 | CC(Nc1nc(-c2cncc(S(N)(=O)=O)c2)nn2ccc(-c3ccccc3)c12)c1ccccc1 (centres unmarked) [Example 8, 5-(5-Phenyl-4-(1-phenylethylamino)pyrrolo[1,2-f][1,2,4]triazin-2-yl)pyridine-3-sulfonamide] | 95.79
4 | OCC(O)c1cncc(-c2nc(NCc3ccccc3)c3c(-c4ccccc4)ccn3n2)c1 (centres unmarked) [Example 14, 1-(5-(4-(Benzylamino)-5-phenylpyrrolo[1,2-f][1,2,4]triazin-2-yl)pyridin-3-yl)ethane-1,2-diol] | 90.60
5 | OCC(O)c1nc(NCc2ccccc2)c2c(-c3ccccc3)ccn2n1 (centres unmarked) [Example 18, 1-(4-(Benzylamino)-5-phenylpyrrolo[1,2-f][1,2,4]triazin-2-yl)ethane-1,2-diol] | 47.37
6 | CC(O)c1cncc(-c2nc(NCc3ccccc3)c3c(-c4ccccc4)ccn3n2)c1 (centres unmarked) [Example 21, 1-(5-(4-(Benzylamino)-5-phenylpyrrolo[1,2-f][1,2,4]triazin-2-yl)pyridin-3-yl)ethanol] | 96.63

Same assay, conditions: L929, 0.3 μM; patch clamped mammalian L-929 cells stably expressing human Kv1.5; read-out: KV1_5% Inh L929 @0.3 μM

Row | Compound | inhibition at 0.3 µM [%]
7 | N#C[C@@H]1C[C@H]1c1nc(NCc2ccccn2)c2c(-c3ccccc3)ccn2n1 (racemic) [Example 43, (±)-2-(5-Phenyl-4-(pyridin-2-ylmethylamino)pyrrolo[1,2-f][1,2,4]triazin-2-yl)cyclopropanecarbonitrile] | 98.6
8 | NC(=O)[C@@H]1C[C@H]1c1nc(NCc2ccccn2)c2c(-c3ccccc3)ccn2n1 (racemic) [Example 44, (±)-2-(5-Phenyl-4-(pyridin-2-ylmethylamino)pyrrolo[1,2-f][1,2,4]triazin-2-yl)cyclopropanecarboxamide] | 98.8
9 | NS(=O)(=O)c1cncc(-c2nc(NCc3ccccc3)c3c(-c4ccccc4)ccn3n2)c1 [Example 1, 5-(4-(Benzylamino)-5-phenylpyrrolo[1,2-f][1,2,4]triazin-2-yl)pyridine-3-sulfonamide] | 96.5
10 | NS(=O)(=O)c1cncc(-c2nc(NCc3ccccn3)c3c(-c4ccccc4)ccn3n2)c1 [Example 2, 5-(5-Phenyl-4-(pyridin-2-ylmethylamino)pyrrolo[1,2-f][1,2,4]triazin-2-yl)pyridine-3-sulfonamide] | 98.5
11 | CS(=O)(=O)Nc1cncc(-c2nc(NCc3ccccn3)c3c(-c4ccccc4)ccn3n2)c1 [Example 3, N-(5-(5-Phenyl-4-(pyridin-2-ylmethylamino)pyrrolo[1,2-f][1,2,4]triazin-2-yl)pyridin-3-yl)methanesulfonamide] | 94.1
12 | NC(=O)CC(=O)Nc1cncc(-c2nc(NCc3ccccc3)c3c(-c4ccccc4)ccn3n2)c1 [Example 4, N1-(5-(4-(Benzylamino)-5-phenylpyrrolo[1,2-f][1,2,4]triazin-2-yl)pyridin-3-yl)malonamide] | 97.3
13 | NS(=O)(=O)c1nc(-c2nc(NCc3ccccn3)c3c(-c4ccccc4)ccn3n2)cs1 [Example 5, 4-(5-Phenyl-4-(pyridin-2-ylmethylamino)pyrrolo[1,2-f][1,2,4]triazin-2-yl)thiazole-2-sulfonamide] | 98.5
14 | NS(=O)(=O)c1cncc(-c2nc(NCc3ccccn3)c3c(-c4ccc(F)cc4)ccn3n2)c1 [Example 6, 5-(5-(4-Fluorophenyl)-4-(pyridin-2-ylmethylamino)pyrrolo[1,2-f][1,2,4]triazin-2-yl)pyridine-3-sulfonamide] | 91.7
15 | COc1ccc(-c2nc(NCc3ccccn3)c3c(-c4ccc(OC)nc4)ccn3n2)cn1 [Example 7, 2,5-Bis(6-methoxypyridin-3-yl)-N-(pyridin-2-ylmethyl)pyrrolo[1,2-f][1,2,4]triazin-4-amine] | 97.8
16 | CC(Nc1nc(-c2cncc(S(N)(=O)=O)c2)nn2ccc(-c3ccccc3)c12)c1ccccc1 (centres unmarked) [Example 8, 5-(5-Phenyl-4-(1-phenylethylamino)pyrrolo[1,2-f][1,2,4]triazin-2-yl)pyridine-3-sulfonamide] | 97.5
17 | NC(=O)c1cncc(-c2nc(NCc3ccccn3)c3c(-c4ccccc4)ccn3n2)c1 [Example 9, 5-(5-Phenyl-4-(pyridin-2-ylmethylamino)pyrrolo[1,2-f][1,2,4]triazin-2-yl)nicotinamide] | 98.4
18 | O=C(O)c1cncc(-c2nc(NCc3ccccn3)c3c(-c4ccccc4)ccn3n2)c1 [Example 10, 5-(5-Phenyl-4-(pyridin-2-ylmethylamino)pyrrolo[1,2-f][1,2,4]triazin-2-yl)nicotinic acid] | 86
19 | c1ccc(CNc2nc(-c3cncc(-c4nnn[nH]4)c3)nn3ccc(-c4ccccc4)c23)cc1 [Example 11, 2-(5-(1H-Tetrazol-5-yl)pyridin-3-yl)-N-benzyl-5-phenylpyrrolo[1,2-f][1,2,4]triazin-4-amine] | 93.4
20 | O=C(O)c1cncc(-c2nc(NCc3ccccc3)c3c(-c4ccccc4)ccn3n2)c1 [Example 12, 5-(4-(Benzylamino)-5-phenylpyrrolo[1,2-f][1,2,4]triazin-2-yl)nicotinic acid] | 88.2
21 | NC(=O)c1cncc(-c2nc(NCc3ccccc3)c3c(-c4ccccc4)ccn3n2)c1 [Example 13, 5-(4-(Benzylamino)-5-phenylpyrrolo[1,2-f][1,2,4]triazin-2-yl)nicotinamide] | 95.9
22 | OCC(O)c1cncc(-c2nc(NCc3ccccc3)c3c(-c4ccccc4)ccn3n2)c1 (centres unmarked) [Example 14, 1-(5-(4-(Benzylamino)-5-phenylpyrrolo[1,2-f][1,2,4]triazin-2-yl)pyridin-3-yl)ethane-1,2-diol] | 95

Row | Compound | inhibition at 0.3 µM [%]
23 | NS(=O)(=O)c1cncc(-c2nc(NCc3ccccc3)c3c(-c4ccccc4)ccn3n2)n1 [Example 15, 6-(4-(Benzylamino)-5-phenylpyrrolo[1,2-f][1,2,4]triazin-2-yl)pyrazine-2-sulfonamide] | 95.5
24 | NS(=O)(=O)c1cc(-c2nc(NCc3ccccc3)c3c(-c4ccccc4)ccn3n2)cnc1O [Example 16, 5-(4-(Benzylamino)-5-phenylpyrrolo[1,2-f][1,2,4]triazin-2-yl)-2-hydroxypyridine-3-sulfonamide] | 91.1
25 | CC(C)(O)c1cncc(-c2nc(NCc3ccccc3)c3c(-c4ccccc4)ccn3n2)c1 [Example 17, 2-(5-(4-(Benzylamino)-5-phenylpyrrolo[1,2-f][1,2,4]triazin-2-yl)pyridin-3-yl)propan-2-ol] | 92.4
26 | OCC(O)c1nc(NCc2ccccc2)c2c(-c3ccccc3)ccn2n1 (centres unmarked) [Example 18, 1-(4-(Benzylamino)-5-phenylpyrrolo[1,2-f][1,2,4]triazin-2-yl)ethane-1,2-diol] | 40.9
27 | O=C(O)CCc1cncc(-c2nc(NCc3ccccc3)c3c(-c4ccccc4)ccn3n2)c1 [Example 19, 3-(5-(4-(Benzylamino)-5-phenylpyrrolo[1,2-f][1,2,4]triazin-2-yl)pyridin-3-yl)propanoic acid] | 91.3
28 | OCc1cncc(-c2nc(NCc3ccccc3)c3c(-c4ccccc4)ccn3n2)c1 [Example 20, (5-(4-(Benzylamino)-5-phenylpyrrolo[1,2-f][1,2,4]triazin-2-yl)pyridin-3-yl)methanol] | 96.6
29 | CC(O)c1cncc(-c2nc(NCc3ccccc3)c3c(-c4ccccc4)ccn3n2)c1 (centres unmarked) [Example 21, 1-(5-(4-(Benzylamino)-5-phenylpyrrolo[1,2-f][1,2,4]triazin-2-yl)pyridin-3-yl)ethanol] | 93.2
30 | COC(=O)C1CCCN1C(=O)c1cncc(-c2nc(NCc3ccccc3)c3c(-c4ccccc4)ccn3n2)c1 (centres unmarked) [Example 22, Methyl 1-(5-(4-(benzylamino)-5-phenylpyrrolo[1,2-f][1,2,4]triazin-2-yl)nicotinoyl)pyrrolidine-2-carboxylate] | 95.1
31 | NS(=O)(=O)c1cncc(-c2nc(NCCOc3cnccn3)c3c(-c4ccccc4)ccn3n2)c1 [Example 23, 5-(5-Phenyl-4-((2-(pyrazin-2-yloxy)ethyl)amino)pyrrolo[2,1-f][1,2,4]triazin-2-yl)pyridine-3-sulfonamide] | 91.6
32 | OCC(CO)c1cncc(-c2nc(NCc3ccccc3)c3c(-c4ccccc4)ccn3n2)c1 [Example 24, 2-(5-(4-(Benzylamino)-5-phenylpyrrolo[1,2-f][1,2,4]triazin-2-yl)pyridin-3-yl)propane-1,3-diol] | 63.5
33 | NC(=O)Nc1cncc(-c2nc(NCc3ccccn3)c3c(-c4ccccc4)ccn3n2)c1 [Example 25, 1-(5-(5-Phenyl-4-(pyridin-2-ylmethylamino)pyrrolo[1,2-f][1,2,4]triazin-2-yl)pyridin-3-yl)urea] | 96.8
34 | CC(=O)Nc1ccc(-c2nc(NCc3ccccn3)c3c(-c4ccccc4)ccn3n2)cc1 [Example 26, N-(4-(5-Phenyl-4-(pyridin-2-ylmethylamino)pyrrolo[1,2-f][1,2,4]triazin-2-yl)phenyl)acetamide] | 94.5
35 | CS(=O)(=O)Nc1cccc(NC(=O)c2nc(NCc3ccccc3)c3c(-c4ccccc4)ccn3n2)c1 [Example 27, 4-(Benzylamino)-N-(3-(methylsulfonamido)phenyl)-5-phenylpyrrolo[1,2-f][1,2,4]triazine-2-carboxamide] | 93.2
36 | NC(=O)CNS(=O)(=O)c1cncc(-c2nc(NCc3ccccn3)c3c(-c4ccccc4)ccn3n2)c1 [Example 28, 2-(5-(5-Phenyl-4-(pyridin-2-ylmethylamino)pyrrolo[1,2-f][1,2,4]triazin-2-yl)pyridine-3-sulfonamido)acetamide] | 97.5
37 | NC(=O)CCC(=O)Nc1cncc(-c2nc(NCc3ccccn3)c3c(-c4ccccc4)ccn3n2)c1 [Example 30, N1-(5-(5-Phenyl-4-(pyridin-2-ylmethylamino)pyrrolo[1,2-f][1,2,4]triazin-2-yl)pyridin-3-yl)succinamide] | 96.3
38 | NC(=O)C(=O)Nc1cncc(-c2nc(NCc3ccccn3)c3c(-c4ccccc4)ccn3n2)c1 [Example 31, N1-(5-(5-Phenyl-4-(pyridin-2-ylmethylamino)pyrrolo[1,2-f][1,2,4]triazin-2-yl)pyridin-3-yl)oxalamide] | 98.6
